# Data published in the NIST ThermoML archive (doi:10.1021/je800468h).
# Values joined by “and” are separate entries in the source; they are usually repeats but may differ in a detail not shown here. Equal values may be shown once. Numbers after ± are expanded uncertainties.
# Key:
# [1] = 298.15 K, 101 kPa, Liquid
# [2] = xn = mol fraction of the nth substance listed; settings: 298.15 K, 101 kPa, Liquid; for electrical conductivity: Alternating current cell with electrodes; for mass density: Vibrating tube method
smiles,measurement,setting,value
CCCCn1cc[n+](C)c1.F[B-](F)(F)F [1-butyl-3-methylimidazolium tetrafluoroborate],electrical conductivity,[1]; Alternating current cell with electrodes,0.353 ± 0.004 S/m
same,mass density,[1]; Vibrating tube method,1202.19 ± 7.9 kg/m3
ClCCl [dichloromethane] + CCCCn1cc[n+](C)c1.F[B-](F)(F)F,electrical conductivity,[2]; x2 = 0.00755,0.0602 ± 0.0006 S/m
same,electrical conductivity,[2]; x2 = 0.01921,0.2 ± 0.002 S/m
same,electrical conductivity,[2]; x2 = 0.02714,0.31 ± 0.003 S/m
same,electrical conductivity,[2]; x2 = 0.03878,0.436 ± 0.004 S/m
same,electrical conductivity,[2]; x2 = 0.07987,0.98 ± 0.01 S/m
same,electrical conductivity,[2]; x2 = 0.1395,1.427 ± 0.014 S/m
same,electrical conductivity,[2]; x2 = 0.194,1.55 ± 0.016 S/m
same,electrical conductivity,[2]; x2 = 0.2674,1.607 ± 0.016 S/m
same,electrical conductivity,[2]; x2 = 0.3355,1.53 ± 0.015 S/m
same,electrical conductivity,[2]; x2 = 0.4787,1.209 ± 0.012 S/m
same,electrical conductivity,[2]; x2 = 0.6019,0.93 ± 0.009 S/m
same,electrical conductivity,[2]; x2 = 0.773,0.62 ± 0.006 S/m
same,electrical conductivity,[2]; x2 = 0.8496,0.511 ± 0.005 S/m
same,electrical conductivity,[2]; x2 = 0.9107,0.441 ± 0.004 S/m
same,mass density,[2]; x2 = 0.00755,1316.6 ± 0.18 kg/m3
same,mass density,[2]; x2 = 0.01921,1314.92 ± 0.19 kg/m3
same,mass density,[2]; x2 = 0.02714,1313.4 ± 0.19 kg/m3
same,mass density,[2]; x2 = 0.03878,1311.8 ± 0.19 kg/m3
same,mass density,[2]; x2 = 0.07987,1304.97 ± 0.22 kg/m3
same,mass density,[2]; x2 = 0.1395,1294.06 ± 0.32 kg/m3
same,mass density,[2]; x2 = 0.194,1284.29 ± 0.46 kg/m3
same,mass density,[2]; x2 = 0.2674,1271.96 ± 0.72 kg/m3
same,mass density,[2]; x2 = 0.3355,1261.43 ± 1 kg/m3
same,mass density,[2]; x2 = 0.4787,1242.95 ± 1.9 kg/m3
same,mass density,[2]; x2 = 0.6019,1230.33 ± 3 kg/m3
same,mass density,[2]; x2 = 0.773,1216.18 ± 4.8 kg/m3
same,mass density,[2]; x2 = 0.8496,1211.19 ± 5.7 kg/m3
same,mass density,[2]; x2 = 0.9107,1207.46 ± 6.5 kg/m3
CCCCn1cc[n+](C)c1.N#CN=C=[N-] [1-butyl-3-methylimidazolium dicyanamide] + O,electrical conductivity,[2]; x1 = 0.009639,2.02 ± 0.02 S/m
same,electrical conductivity,[2]; x1 = 0.02791,3.49 ± 0.04 S/m
same,electrical conductivity,[2]; x1 = 0.05432,4.43 ± 0.04 S/m
same,electrical conductivity,[2]; x1 = 0.07995,4.8 ± 0.05 S/m
same,electrical conductivity,[2]; x1 = 0.1112,4.9 ± 0.05 S/m
same,electrical conductivity,[2]; x1 = 0.1933,4.47 ± 0.05 S/m
same,electrical conductivity,[2]; x1 = 0.3214,3.55 ± 0.04 S/m
same,electrical conductivity,[2]; x1 = 0.4686,2.71 ± 0.03 S/m
same,electrical conductivity,[2]; x1 = 0.6386,2 ± 0.02 S/m
same,electrical conductivity,[2]; x1 = 0.8742,1.37 ± 0.014 S/m
same,electrical conductivity,[2]; x1 = 1,1.139 ± 0.011 S/m
same,mass density,[2]; x1 = 0.009639,1003.22 ± 0.12 kg/m3
same,mass density,[2]; x1 = 0.02791,1011.25 ± 0.12 kg/m3
same,mass density,[2]; x1 = 0.05432,1019.63 ± 0.13 kg/m3
same,mass density,[2]; x1 = 0.07995,1025.43 ± 0.14 kg/m3
same,mass density,[2]; x1 = 0.1112,1031.05 ± 0.16 kg/m3
same,mass density,[2]; x1 = 0.1933,1040.01 ± 0.29 kg/m3
same,mass density,[2]; x1 = 0.3214,1047.31 ± 0.67 kg/m3
same,mass density,[2]; x1 = 0.4686,1051.86 ± 1.3 kg/m3
same,mass density,[2]; x1 = 0.6386,1055.38 ± 2.5 kg/m3
same,mass density,[2]; x1 = 0.8742,1058.33 ± 4.6 kg/m3
same,mass density,[2]; x1 = 1,1059.12 ± 6.1 kg/m3
CCCCn1cc[n+](C)c1.F[B-](F)(F)F [1-butyl-3-methylimidazolium tetrafluoroborate] + ClCCl,electrical conductivity,[2]; x1 = 1,0.353 ± 0.004 S/m
same,mass density,[2]; x1 = 1,1202.19 ± 7.9 kg/m3
CCCCn1cc[n+](C)c1.F[P-](F)(F)(F)(F)F [1-butyl-3-methylimidazolium hexafluorophosphate] + CC#N,electrical conductivity,[2]; x1 = 0.007571,1.49 ± 0.015 S/m
same,electrical conductivity,[2]; x1 = 0.01576,2.54 ± 0.03 S/m
same,electrical conductivity,[2]; x1 = 0.02489,3.39 ± 0.03 S/m
same,electrical conductivity,[2]; x1 = 0.03448,4.05 ± 0.04 S/m
same,electrical conductivity,[2]; x1 = 0.05838,5 ± 0.05 S/m
same,electrical conductivity,[2]; x1 = 0.08779,5.39 ± 0.05 S/m
same,electrical conductivity,[2]; x1 = 0.1261,5.27 ± 0.05 S/m
same,electrical conductivity,[2]; x1 = 0.1772,4.68 ± 0.05 S/m
same,electrical conductivity,[2]; x1 = 0.2521,3.63 ± 0.04 S/m
same,electrical conductivity,[2]; x1 = 0.3649,2.3 ± 0.02 S/m
same,electrical conductivity,[2]; x1 = 0.5591,0.995 ± 0.01 S/m
same,electrical conductivity,[2]; x1 = 0.7291,0.469 ± 0.005 S/m
same,electrical conductivity,[2]; x1 = 0.8729,0.253 ± 0.003 S/m
same,electrical conductivity,[2]; x1 = 1,0.147 ± 0.0015 S/m
same,mass density,[2]; x1 = 0.007571,795.63 ± 0.15 kg/m3
same,mass density,[2]; x1 = 0.01576,815.17 ± 0.15 kg/m3
same,mass density,[2]; x1 = 0.02489,835.56 ± 0.15 kg/m3
same,mass density,[2]; x1 = 0.03448,855.89 ± 0.16 kg/m3
same,mass density,[2]; x1 = 0.05838,901.77 ± 0.17 kg/m3
same,mass density,[2]; x1 = 0.08779,950.71 ± 0.2 kg/m3
same,mass density,[2]; x1 = 0.1261,1004.47 ± 0.23 kg/m3
same,mass density,[2]; x1 = 0.1772,1062.7 ± 0.32 kg/m3
same,mass density,[2]; x1 = 0.2521,1128.61 ± 0.57 kg/m3
same,mass density,[2]; x1 = 0.3649,1199.71 ± 1.2 kg/m3
same,mass density,[2]; x1 = 0.5591,1278.14 ± 2.9 kg/m3
same,mass density,[2]; x1 = 0.7291,1321.97 ± 5.1 kg/m3
same,mass density,[2]; x1 = 0.8729,1349.76 ± 7.6 kg/m3
same,mass density,[2]; x1 = 1,1368.32 ± 10 kg/m3
CCn1cc[n+](C)c1.F[B-](F)(F)F [1-ethyl-3-methylimidazolium tetrafluoroborate] + O,electrical conductivity,[2]; x1 = 0.004746,1.87 ± 0.019 S/m
same,electrical conductivity,[2]; x1 = 0.01001,3.26 ± 0.03 S/m
same,electrical conductivity,[2]; x1 = 0.02226,5.35 ± 0.05 S/m
same,electrical conductivity,[2]; x1 = 0.03637,6.81 ± 0.07 S/m
same,electrical conductivity,[2]; x1 = 0.05733,8.08 ± 0.08 S/m
same,electrical conductivity,[2]; x1 = 0.08102,8.84 ± 0.09 S/m
same,electrical conductivity,[2]; x1 = 0.115,9.24 ± 0.09 S/m
same,electrical conductivity,[2]; x1 = 0.174,9.08 ± 0.09 S/m
same,electrical conductivity,[2]; x1 = 0.2564,8.13 ± 0.08 S/m
same,electrical conductivity,[2]; x1 = 0.419,5.99 ± 0.06 S/m
same,electrical conductivity,[2]; x1 = 1,1.55 ± 0.016 S/m
same,mass density,[2]; x1 = 0.004746,1007.69 ± 0.12 kg/m3
same,mass density,[2]; x1 = 0.01001,1018.31 ± 0.12 kg/m3
same,mass density,[2]; x1 = 0.02226,1040.22 ± 0.13 kg/m3
same,mass density,[2]; x1 = 0.03637,1061.36 ± 0.14 kg/m3
same,mass density,[2]; x1 = 0.05733,1087.31 ± 0.16 kg/m3
same,mass density,[2]; x1 = 0.08102,1110.93 ± 0.18 kg/m3
same,mass density,[2]; x1 = 0.115,1136.45 ± 0.22 kg/m3
same,mass density,[2]; x1 = 0.174,1168.6 ± 0.35 kg/m3
same,mass density,[2]; x1 = 0.2564,1198.61 ± 0.64 kg/m3
same,mass density,[2]; x1 = 0.419,1233.28 ± 1.6 kg/m3
same,mass density,[2]; x1 = 1,1283.7 ± 9 kg/m3
CCn1cc[n+](C)c1.F[B-](F)(F)F [1-ethyl-3-methylimidazolium tetrafluoroborate] + CC#N,electrical conductivity,[2]; x1 = 0.008411,1.58 ± 0.016 S/m
same,electrical conductivity,[2]; x1 = 0.01082,1.9 ± 0.02 S/m
same,electrical conductivity,[2]; x1 = 0.01528,2.46 ± 0.03 S/m
same,electrical conductivity,[2]; x1 = 0.01646,2.55 ± 0.03 S/m
same,electrical conductivity,[2]; x1 = 0.02252,3.13 ± 0.03 S/m
same,electrical conductivity,[2]; x1 = 0.02253,3.14 ± 0.03 S/m
same,electrical conductivity,[2]; x1 = 0.04929,4.89 ± 0.05 S/m
same,electrical conductivity,[2]; x1 = 0.04942,4.94 ± 0.05 S/m
same,electrical conductivity,[2]; x1 = 0.08059,6.03 ± 0.06 S/m
same,electrical conductivity,[2]; x1 = 0.1007,6.5 ± 0.07 S/m
same,electrical conductivity,[2]; x1 = 0.1218,6.72 ± 0.07 S/m
same,electrical conductivity,[2]; x1 = 0.1433,6.94 ± 0.07 S/m
same,electrical conductivity,[2]; x1 = 0.1736,6.92 ± 0.07 S/m
same,electrical conductivity,[2]; x1 = 0.2043,6.91 ± 0.07 S/m
same,electrical conductivity,[2]; x1 = 0.2371,6.65 ± 0.07 S/m
same,electrical conductivity,[2]; x1 = 0.2778,6.41 ± 0.06 S/m
same,electrical conductivity,[2]; x1 = 0.3264,5.9 ± 0.06 S/m
same,electrical conductivity,[2]; x1 = 0.384,5.41 ± 0.05 S/m
same,electrical conductivity,[2]; x1 = 0.4565,4.64 ± 0.05 S/m
same,electrical conductivity,[2]; x1 = 0.4888,4.44 ± 0.04 S/m
same,electrical conductivity,[2]; x1 = 0.6478,3.2 ± 0.03 S/m
same,electrical conductivity,[2]; x1 = 0.652,3.1 ± 0.03 S/m
same,electrical conductivity,[2]; x1 = 0.759,2.54 ± 0.03 S/m
same,electrical conductivity,[2]; x1 = 0.8336,2.11 ± 0.02 S/m
same,electrical conductivity,[2]; x1 = 0.8902,1.95 ± 0.02 S/m
same,electrical conductivity,[2]; x1 = 1,1.55 ± 0.016 S/m
same,mass density,[2]; x1 = 0.008411,791.26 ± 0.15 kg/m3
same,mass density,[2]; x1 = 0.01082,795.48 ± 0.15 kg/m3
same,mass density,[2]; x1 = 0.01528,802.59 ± 0.15 kg/m3
same,mass density,[2]; x1 = 0.01646,804.68 ± 0.15 kg/m3
same,mass density,[2]; x1 = 0.02252,814.3 ± 0.15 kg/m3
same,mass density,[2]; x1 = 0.02253,813.87 ± 0.15 kg/m3
same,mass density,[2]; x1 = 0.04929,853.38 ± 0.15 kg/m3
same,mass density,[2]; x1 = 0.04942,854.17 ± 0.16 kg/m3
same,mass density,[2]; x1 = 0.08059,893.87 ± 0.16 kg/m3
same,mass density,[2]; x1 = 0.1007,916.26 ± 0.19 kg/m3
same,mass density,[2]; x1 = 0.1218,939.88 ± 0.18 kg/m3
same,mass density,[2]; x1 = 0.1433,960.07 ± 0.23 kg/m3
same,mass density,[2]; x1 = 0.1736,988.57 ± 0.2 kg/m3
same,mass density,[2]; x1 = 0.2043,1012.5 ± 0.33 kg/m3
same,mass density,[2]; x1 = 0.2371,1038.16 ± 0.22 kg/m3
same,mass density,[2]; x1 = 0.2778,1063.36 ± 0.56 kg/m3
same,mass density,[2]; x1 = 0.3264,1093.25 ± 0.27 kg/m3
same,mass density,[2]; x1 = 0.384,1120.11 ± 1.1 kg/m3
same,mass density,[2]; x1 = 0.4565,1153.25 ± 0.38 kg/m3
same,mass density,[2]; x1 = 0.4888,1163.04 ± 1.8 kg/m3
same,mass density,[2]; x1 = 0.6478,1211.72 ± 3.4 kg/m3
same,mass density,[2]; x1 = 0.652,1215.55 ± 0.65 kg/m3
same,mass density,[2]; x1 = 0.759,1237.95 ± 4.8 kg/m3
same,mass density,[2]; x1 = 0.8336,1255.87 ± 1 kg/m3
same,mass density,[2]; x1 = 0.8902,1263.01 ± 6.9 kg/m3
same,mass density,[2]; x1 = 1,1283.7 ± 1.5 kg/m3 and 1280.38 ± 8.9 kg/m3
